Where “and” joins values, the source holds several entries; their conditions need not be identical. Equal values may be shown once.

The nature of experiment [1]: Acid-soluble thiol concentration in the plasma during N-acetylcysteine ingestion. It is filed as in vivo, human. Conditions: healthy subject; NAC approximately 0.1-0.4 g per week, periods 1, 2, 5 and 6. On the procedure: (§1) During the periods 1,2,5 and 6, the subject ingested small doses of N-acetylcysteine (NAC) (approximately 0.1-0.4 g per week) to adjust the acid-soluble thiol concentration in the plasma to an average value of about 15 μM, which corresponds approximately to the mean of healthy young subjects (see FIG. 1). In period 2, the subject ingested 3-4 times per week creatine at a dosis of approximately 3-4 g per week. In the period 4 and 6, the subject ingested creatine 6-7 times per week at a mean dose of approximately 6-8 g per week. Creatine was discontinued twice for one week each after the cystine level fell to a value of 40 and 41 μM, respectively. […] The P values illustrate the statistical significance for the differences between different treatment periods.

Experiment [2] in a line: Plasma cystine concentration of a subject during creatine treatment periods. It is filed as in vivo, human. Conditions: healthy subject.
Text: FIG. 3 illustrates the results of a study that is described in more detail in example 1. The ordinate (c) describes the plasma cystine concentration in μMol. The columns 1-6 describe the mean plasma cystine concentrations during 6 successive treatment periods of a subject as described in example 1.
as §1

Consider `CC(=O)N[C@@H](CS)C(=O)O` [N-acetylcysteine], for which, in experiment [1], the “acid-soluble thiol concentration in the plasma, average value” is listed as “about 15 μM”. Take `CN(CC(=O)O)C(=N)N` [creatine]: the “cystine level at which creatine was discontinued” value in experiment [2] (creatine discontinued twice for one week each after the level fell to this value) was 40 µM and 41 µM. Also, the plasma cystine level entry in experiment [2] (relatively small oral doses of creatine (approx. 3-8 g per week) during a total period of about 2.5 years, level corresponds to 20-35 year-old healthy subjects) was “approximately 50 μ”.

For the origin of these results see patent publication US6927231B2, “Use of creatine for the amelioration of oxidative stress” (2458781 Canada Inc., priority 2001, dated 2005).
